In BindingDB's records for doi:10.7270/Q2TX3CTT (Broad Institute, 2010):

Molecular target: Glycogen synthase kinase-3 beta (Homo sapiens, UniProt P49841)
Assay: concentration-response blocking of human GSK3B – biochemical, luminescence, cell-free homogeneous, retest, dose response (AID 434954)

Chain of Glycogen synthase kinase-3 beta (P49841 whole entry): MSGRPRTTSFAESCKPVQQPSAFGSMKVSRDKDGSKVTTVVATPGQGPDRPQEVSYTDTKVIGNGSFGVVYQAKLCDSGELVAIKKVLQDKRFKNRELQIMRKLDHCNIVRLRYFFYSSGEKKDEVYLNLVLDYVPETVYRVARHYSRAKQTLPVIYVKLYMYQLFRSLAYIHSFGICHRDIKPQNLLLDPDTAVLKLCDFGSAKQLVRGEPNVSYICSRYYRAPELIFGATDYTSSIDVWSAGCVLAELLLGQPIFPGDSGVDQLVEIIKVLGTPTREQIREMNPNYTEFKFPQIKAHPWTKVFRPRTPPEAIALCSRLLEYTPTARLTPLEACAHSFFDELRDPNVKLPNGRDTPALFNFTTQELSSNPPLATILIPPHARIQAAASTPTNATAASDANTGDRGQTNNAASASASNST

Row | EC50 [µM] | Compound
1 | > 300 | COc1ccc2cc(C(=O)CS(=O)(=O)c3ccccc3)c(=O)oc2c1 [3-[2-(benzenesulfonyl)acetyl]-7-methoxychromen-2-one]
2 | > 300 | N#Cc1c(-c2ccccc2)nc(-c2ccccc2)[nH]c1=O [SMR000168447]
3 | > 300 | CCOC(=O)N1CCC(NC(=O)c2cc3sccc3n2CC)CC1 [MLS000093129]
4 | > 300 | O=S(=O)(c1ccc(F)cc1)c1nc(-c2ccco2)oc1Nc1ccccc1 [4-(4-fluorophenyl)sulfonyl-2-(furan-2-yl)-N-phenyl-1,3-oxazol-5-amine]
5 | > 300 | CC(C(=O)NC1CCCCCC1)n1cc([N+](=O)[O-])cn1 (stereo unspecified) [N-cycloheptyl-2-(4-nitro-1-pyrazolyl)propanamide]
6 | > 300 | CC1CCN(C(=O)CSc2nc(N)c3c4c(sc3n2)CN(C)CC4)CC1 [2-[(4-azanyl-7-methyl-6,8-dihydro-5H-pyrido[4,5]thieno[1,2-c]pyrimidin-2-yl)sulfanyl]-1-(4-methylpiperidin-1-yl)ethanone]
7 | > 300 | O=C(COC(=O)c1cc(=O)c2ccccc2o1)NC1CCCC1 [MLS001017387]
8 | 4.64 | CCOC(=O)C1C(C)=Nc2ncnn2C1c1c[nH]c2ccccc12 (stereo unspecified) [MLS000089006]
9 | 7.01 | COc1ccc(C=C2SC(NCc3ccccc3)=NC2=O)cc1 [(5Z)-5-[(4-methoxyphenyl)methylidene]-2-[(phenylmethyl)amino]-1,3-thiazol-4-one]
10 | > 300 | CCOC(=O)C(CC)Sc1ncnc2nc[nH]c12 (stereo unspecified)
11 | > 300 | CC(=O)Nc1c(N)c2ccccc2oc1=O [N-(4-amino-2-oxo-1-benzopyran-3-yl)acetamide]
12 | > 300 | Cn1ncc(Br)c1C(=O)Nc1cccc(C(F)(F)F)c1 [MLS000711234]
13 | > 300 | CC1CCCCN1c1ncnc2ccccc12 (stereo unspecified) [4-(2-Methyl-piperidin-1-yl)-quinazoline]
14 | > 300 | O=C(NCCO)Nc1ccc2nsnc2c1 [MLS000708760]
15 | > 300 | CN(C)Cc1c(O)ccc2occ(C(=O)c3ccccc3)c12 [SMR000069709]
16 | > 300 | COc1ccc(OC)c(C(=O)c2coc3ccc(OC(C)=O)cc23)c1 [3-(2,5-dimethoxybenzoyl)-1-benzofuran-5-yl acetate]
17 | > 300 | Cc1nc(NCCCn2ccnc2)c2oc3ccccc3c2n1 [MLS000082652]
18 | > 300 | O=C(CSc1ccc2nnc(-c3ccc(F)cc3)n2n1)N1CCOCC1 [2-[[3-(4-fluorophenyl)-[1,2,4]triazolo[4,3-b]pyridazin-6-yl]sulfanyl]-1-morpholin-4-yl-ethanone]
19 | 5.73 | NS(=O)(=O)c1ccc(Nc2nc(-c3ccc(O)cc3O)cs2)cc1 [4-(4-(2,4-dihydroxyphenyl)thiazol-2-ylamino)benzenesulfonamide]
20 | > 300 | O=C(CN1C(=O)CCC1=O)Nc1ccc(Cc2ccc(NC(=O)CN3C(=O)CCC3=O)cc2)cc1 [2-(2,5-dioxo-1-pyrrolidinyl)-N-[4-[[4-[[2-(2,5-dioxo-1-pyrrolidinyl)-1-oxoethyl]amino]phenyl]methyl]phenyl]acetamide]
21 | > 300 | COc1ccc(OC)c(C=NNC(=O)CCc2c(C)n[nH]c2C)c1 [MLS000769019]
22 | > 300 | Fc1ccc(CSc2nnc(-c3ccccn3)o2)cc1

Row | EC50 [µM] | Compound
23 | > 300 | Nc1nonc1-n1nnc(C(=O)NN=Cc2ccoc2)c1CSc1ccc(Cl)cc1 [1-(4-amino-1,2,5-oxadiazol-3-yl)-5-[(4-chlorophenyl)sulfanylmethyl]-N-(furan-3-ylmethylideneamino)triazole-4-carboxamide]
24 | 0.888 | COc1ccccc1Nc1nc(NCC(C)C)nc(N)c1[N+](=O)[O-] [SMR000436174]
25 | 86.3 | COc1ccc(-c2nn(CCC#N)cc2CN=O)cc1
26 | > 300 | Cc1ccc(Nc2nc(NCCCN3CCOCC3)nc(N)c2[N+](=O)[O-])cc1 [N4-(4-methylphenyl)-N2-(3-morpholin-4-ylpropyl)-5-nitro-pyrimidine-2,4,6-triamine]
27 | > 300 | COc1ccc(-c2nn(-c3ccccc3)cc2CO)cc1 [MLS000534260]
28 | 39.9 | O=C(CSc1ccc2nnc(-c3ccc(F)cc3)n2n1)NCc1ccco1 [2-[[3-(4-fluorophenyl)-[1,2,4]triazolo[4,3-b]pyridazin-6-yl]thio]-N-(2-furanylmethyl)acetamide]
29 | > 300 | NS(=O)(=O)c1ccc(N2CCCCCC2)c([N+](=O)[O-])c1 [4-(azepan-1-yl)-3-nitrobenzenesulfonamide]
30 | > 300 | CCC1(CC)NC(=O)N(CC(=O)OCC(=O)Nc2sccc2C#N)C1=O [[2-[(3-cyanothiophen-2-yl)amino]-2-oxoethyl] 2-(4,4-diethyl-2,5-dioxoimidazolidin-1-yl)acetate]
31 | 12.8 | O=NCc1ccc(Oc2ccccc2Cl)c([N+](=O)[O-])c1 [N-[[4-(2-chlorophenoxy)-3-nitrophenyl]methylidene]hydroxylamine]
32 | > 300 | O=C(NCC(c1ccco1)N1CCc2ccccc2C1)c1ccccc1Cl (stereo unspecified) [2-chloro-N-[2-(3,4-dihydro-1H-isoquinolin-2-yl)-2-(2-furanyl)ethyl]benzamide]
33 | > 300 | O=C(Nc1ccccn1)c1ccc(C(=O)Nc2ccccn2)cc1 [SMR000502618]
34 | > 300 | O=C1CCCC2=Nc3ncnn3C(c3cccs3)C12 (stereo unspecified) [9-thiophen-2-yl-5,6,7,9-tetrahydro-1H-[1,2,4]triazolo[5,1-b]quinazolin-8-one]
35 | > 300 | CNC(=O)c1cc2cccc(OC)c2oc1=O
36 | > 300 | COC(=O)c1sc(=S)n(Cc2ccccc2)c1C [methyl 3-benzyl-4-methyl-2-sulfanylidene-1,3-thiazole-5-carboxylate]
37 | 9.98 | O=C(Nc1ccsc1C(=O)NC1CC1)c1ccccc1 [MLS000546913]
38 | > 300 | COc1ccc(C(=O)NCC(=O)NN=Cc2ccc(C)o2)cc1OC [3,4-dimethoxy-N-(2-{2-[(5-methyl-2-furyl)methylene]hydrazino}-2-oxoethyl)benzamide]
39 | > 300 | COc1ccc(C(=O)/C=C2/C(=O)Nc3ccccc32)c(OC)c1 [SMR000543845]
40 | > 300 | O=C(COc1ccccc1Cl)Nc1ccc2c(c1)OCCO2 [2-(2-chloranylphenoxy)-N-(2,3-dihydro-1,4-benzodioxin-6-yl)ethanamide]
41 | 4.25 | CCCCOC(=O)C1C(C)=Nc2ncnn2C1c1cccc(OC)c1OC (stereo unspecified) [butyl 7-(2,3-dimethoxyphenyl)-5-methyl-4,7-dihydro[1,2,4]triazolo[1,5-a]pyrimidine-6-carboxylate]
42 | > 300 | O=C(CCC1CCN(C(=O)c2cc(C(F)(F)F)ccc2Cl)CC1)NC1CC1 [3-[1-[2-chloro-5-(trifluoromethyl)benzoyl]piperidin-4-yl]-N-cyclopropylpropanamide]
43 | 18.3 | CSc1nc(NCC(C)O)c2c3c(sc2n1)CN(C)CC3 (stereo unspecified) [1-[(7-methyl-2-methylsulfanyl-6,8-dihydro-5H-pyrido[4,5]thieno[1,2-c]pyrimidin-4-yl)amino]propan-2-ol]
44 | > 300 | COc1ccc2nc(NC(=O)CSC3=NCCS3)sc2c1 [SMR000012424]

Row | EC50 [µM] | Compound
45 | > 300 | CCn1c(SCC(=O)Nc2ccccc2)nnc1C1CCCCC1
46 | 24.8 | O=C1CN(c2nc(-c3cccnc3)nc3sc4c(c23)CCCC4)CCN1 [MLS000772211]
47 | > 300 | CCC(=O)Nc1nn(CC(C)C)c2nc3ccc(C)cc3cc12 [N-[6-methyl-1-(2-methylpropyl)pyrazolo[3,4-b]quinolin-3-yl]propanamide]
48 | 57.9 | CCOC(=O)C1C(C)=Nc2ncnn2C1c1cccs1 (stereo unspecified)
49 | 19.1 | COc1ccc(CNC(=O)CN(Cc2ccc(OC)cc2)C(=O)CCC(=O)Nc2nccs2)cc1 [MLS001222948]
50 | > 300 | CCCc1cc(=O)[nH]c2nnc(SCC(=O)Nc3nccs3)n12 [2-[(7-oxidanylidene-5-propyl-1H-[1,2,4]triazolo[4,3-a]pyrimidin-3-yl)sulfanyl]-N-(1,3-thiazol-2-yl)ethanamide]
51 | > 300 | CCOc1ccc(NC(=O)Nc2cnccn2)cc1 [SMR000297712]
52 | > 300 | COc1cccc2cc(C(=O)NCc3ccc(C)cc3)c(=O)oc12 [8-methoxy-N-(4-methylbenzyl)-2-oxo-2H-chromene-3-carboxamide]
53 | > 300 | COc1ccc(OC)c(Nc2nc(N)c([N+](=O)[O-])c(NCc3ccccc3)n2)c1 [N2-(2,5-dimethoxyphenyl)-5-nitro-N4-(phenylmethyl)pyrimidine-2,4,6-triamine]
54 | > 300 | CCOc1ccc2ncc(C(=O)c3ccc(OC)cc3)c(N3CCN(CC)CC3)c2c1 [[6-ethoxy-4-(4-ethylpiperazin-1-yl)quinolin-3-yl](4-methoxyphenyl)methanone]
55 | > 300 | Cc1ccccc1CSc1nc2n(n1)C(c1cccs1)C1C(=O)CCCC1=N2 (stereo unspecified) [2-[(2-methylphenyl)methylsulfanyl]-9-thiophen-2-yl-5,6,7,9-tetrahydro-1H-[1,2,4]triazolo[5,1-b]quinazolin-8-one]
56 | > 300 | Cc1cc(=O)[nH]c(N=NCc2ccc(-c3ccc([N+](=O)[O-])cc3)o2)n1 [SMR000589712]
57 | > 300 | OCCNc1nc(-c2cccnc2)nc2ccccc12 [MLS000107346]
58 | > 300 | O=C(Nc1ncc([N+](=O)[O-])s1)c1ccco1 [N-(5-nitro-2-thiazolyl)-2-furancarboxamide]
59 | > 300 | NC(=O)c1ccc(N2CCCCCC2)c([N+](=O)[O-])c1 [MLS000688695]
60 | 16.3 | CCN1CCN(CCNC(=O)c2ccc3c(c2)NC(=O)/C(=C\c2ccc(OC)c(OC)c2)S3)CC1 [(2E)-2-[(3,4-dimethoxyphenyl)methylidene]-N-[2-(4-ethylpiperazin-1-yl)ethyl]-3-oxidanylidene-4H-1,4-benzothiazine-6-carboxamide]
61 | 21.5 | CC(C)Cn1nc(NC(=O)c2cccs2)c2cc3ccccc3nc21 [N-[1-(2-methylpropyl)-3-pyrazolo[3,4-b]quinolinyl]-2-thiophenecarboxamide]
62 | > 300 | Oc1cc(-c2c[nH]c3ccccc23)c(O)n1-c1ccccc1 [MLS000121758]
63 | 4.4 | CC1=NC(=O)NC(c2ccccc2OC(F)F)C1C(=O)OCc1ccccc1 (stereo unspecified)
64 | 8.87 | Nc1nonc1-n1nnc(C(=O)NN=Cc2ccc(OCc3ccccc3)cc2)c1CN1CCCCC1 [MLS001075115]
65 | > 300 | Cc1ccc(CNS(=O)(=O)c2c(C)[nH]c(=O)[nH]c2=O)cc1 [MLS001200136]

Row | Compound | EC50 [µM]
66 | O=C1NC(c2cccnc2)Nc2sc3c(c21)CCCC3 (stereo unspecified) [SMR000114421] | > 300
